Results as given in patent US8273542B2 (priority 2005, dated 2012).
pEC50: −log10 of the molar value. Read-outs that look alike come from different tables or passages of the source.

How the values were obtained:
mT2R5 = target: T1, mT2R5 (Mus musculus, UniProt Q9JKT4); conditions: Chandrashekar et al. 2000; cited from earlier work
T1 construct: host or cells: insect Sf9 cells
T1 sequence (Q9JKT4 1-300): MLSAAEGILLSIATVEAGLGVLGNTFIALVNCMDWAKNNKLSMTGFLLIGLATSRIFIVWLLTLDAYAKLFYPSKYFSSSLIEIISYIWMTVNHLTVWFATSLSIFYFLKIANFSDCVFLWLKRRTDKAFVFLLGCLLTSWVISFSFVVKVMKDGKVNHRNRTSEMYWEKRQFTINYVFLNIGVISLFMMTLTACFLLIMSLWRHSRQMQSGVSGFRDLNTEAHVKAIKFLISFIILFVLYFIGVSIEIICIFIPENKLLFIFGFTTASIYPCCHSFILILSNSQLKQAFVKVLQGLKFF

hT2R75 = target: T2, hT2R75 (Homo sapiens, UniProt P59540); assay type: cell-based
T2 construct: expressed in transfected cells; host or cells: HEK293 cells stably expressing large T antigen and G16gust44, transiently transfected
T2 sequence (P59540 1-309): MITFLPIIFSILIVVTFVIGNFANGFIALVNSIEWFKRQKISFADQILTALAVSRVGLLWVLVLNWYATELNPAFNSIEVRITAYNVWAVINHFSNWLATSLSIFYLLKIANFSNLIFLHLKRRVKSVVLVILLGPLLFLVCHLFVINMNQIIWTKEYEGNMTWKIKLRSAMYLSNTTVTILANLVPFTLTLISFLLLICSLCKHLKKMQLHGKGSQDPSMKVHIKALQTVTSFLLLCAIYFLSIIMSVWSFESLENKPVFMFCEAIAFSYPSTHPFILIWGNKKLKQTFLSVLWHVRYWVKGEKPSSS
Protocol: (§1) More particularly, the present inventors transfected HEK293 cells with a particular hT2R together with a chimeric G protein (G16 gust 44) which comprises the […] G protein sequence modified by the replacement of carboxy-44 amino acid residues with those of gustducin, and recorded responses of these cells to specific bitter ligands by calcium imaging methods.
(§2) Activation of these receptors by ranitidine is measured in a cell-based assay detecting changes in intracellular calcium concentration. In brief, human embryonic kidney cells stably expressing the large […] and a chimeric G protein (G16gust44) are transiently transfected with the a plasmid containing a particular hT2R54 nucleic acid sequence either by Ca^2+ phosphate or lipid-based systems. Transiently transfected cells are seeded into 24 well culture plates, and functional expression allowed to proceed for a total of 48 hours. The cells are then incubated with a fluorescent dye specific for calcium (Fluo-4 or Fura-2; Molecular Probes) that provides a fast, simple and reliable fluorescence-based method for detecting changes in calcium concentration inside the cell. Addition of ranitidine to cells elicits a signaling cascade leading to the activation of PLC and a subsequent increase in intracellular calcium concentration. This increase in calcium concentration changes the fluorescence properties of the calcium dye inside the cells. These changes are monitored using fluorescence microscopy and a specific design software (Imaging Workbench, Axon).
(§3) Activation of these receptors by denatonium benzoate is measured in a cell-based assay detecting changes in intracellular calcium concentration. […] The cells are then incubated with a fluorescent dye specific for calcium (Fluo-4 or Fura-2; Molecular Probes) that provides a fast, simple and reliable fluorescence-based method for detecting changes in calcium concentration inside the cell. […] This increase in calcium concentration changes the fluorescence properties of the calcium dye inside the cells. These changes are monitored using fluorescence microscopy and specific design software (Imaging Workbench, Axon).
as §3, with “receptors by strychnine is measured” for “receptors by denatonium benzoate is measured”, “microscopy and a specific design” for “microscopy and specific design”

hT2R8 [1] = target: T3, hT2R8 (Homo sapiens, UniProt Q9NYW2); assay type: cell-based
T3 construct: expressed in transfected cells; host or cells: HEK293 cells stably expressing large T antigen and chimeric G protein G16gust44; Transfection was transient for imaging
T3 sequence (Q9NYW2 1-309): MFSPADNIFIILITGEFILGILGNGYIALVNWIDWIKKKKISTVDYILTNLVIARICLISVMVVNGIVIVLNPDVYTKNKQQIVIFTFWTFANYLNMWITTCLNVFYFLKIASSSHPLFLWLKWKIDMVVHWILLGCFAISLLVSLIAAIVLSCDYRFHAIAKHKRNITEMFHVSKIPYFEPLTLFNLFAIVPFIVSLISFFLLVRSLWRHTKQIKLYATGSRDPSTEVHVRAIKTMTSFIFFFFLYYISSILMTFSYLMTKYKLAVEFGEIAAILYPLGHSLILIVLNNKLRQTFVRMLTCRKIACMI
Protocol: as §1, §2, §3
as §3, with “receptors by strychnine is measured” for “receptors by denatonium benzoate is measured”, “microscopy and a specific design” for “microscopy and specific design”

hT2R54 [2] = target: T4, hT2R54 (Homo sapiens, UniProt P59534); assay type: cell-based
T4 construct: expressed in transfected cells; host or cells: HEK293 cells stably expressing large T antigen and G16gust44; Transfection was transient for imaging
T4 sequence (P59534 18-338): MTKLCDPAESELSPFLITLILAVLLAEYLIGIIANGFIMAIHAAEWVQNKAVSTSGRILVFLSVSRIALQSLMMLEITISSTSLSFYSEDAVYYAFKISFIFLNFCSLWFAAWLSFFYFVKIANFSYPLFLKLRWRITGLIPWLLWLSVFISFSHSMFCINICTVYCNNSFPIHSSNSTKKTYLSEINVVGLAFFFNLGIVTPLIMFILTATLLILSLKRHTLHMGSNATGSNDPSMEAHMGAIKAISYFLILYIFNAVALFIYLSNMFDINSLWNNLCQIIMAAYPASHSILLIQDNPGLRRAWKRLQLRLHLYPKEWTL
Protocol: as §1, §2
Transiently transfected cells are seeded into 24 well culture plates, and functional expression allowed to proceed for a total of 48 hours. The cells are then incubated with a fluorescent dye specific for calcium (Fluo-4 or Fura-2; Molecular Probes) that provides a fast, simple and reliable fluorescence-based method for detecting changes in calcium concentration inside the cell. […] This increase in calcium concentration changes the fluorescence properties of the calcium dye inside the cells. These changes are monitored using fluorescence microscopy and specific design software (Imaging Workbench, Axon).
as §3

hT2R10 = target: T5, hT2R10 (Homo sapiens, UniProt Q9NYW0); assay type: cell-based; conditions: concentration not given
T5 construct: expressed in transfected cells; host or cells: HEK293 cells stably expressing large T antigen and G16gust44, transiently transfected
T5 sequence (Q9NYW0 1-307): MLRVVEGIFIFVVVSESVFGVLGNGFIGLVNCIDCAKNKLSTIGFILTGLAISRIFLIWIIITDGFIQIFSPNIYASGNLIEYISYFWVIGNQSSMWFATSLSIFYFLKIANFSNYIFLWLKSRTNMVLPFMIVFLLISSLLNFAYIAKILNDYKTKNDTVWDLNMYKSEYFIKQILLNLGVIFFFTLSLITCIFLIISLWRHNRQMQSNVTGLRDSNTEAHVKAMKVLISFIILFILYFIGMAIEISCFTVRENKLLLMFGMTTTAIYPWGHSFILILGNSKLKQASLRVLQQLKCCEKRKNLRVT
Protocol: as §1, §3
Activation of these receptors by strychnine is measured in a cell-based assay detecting changes in intracellular calcium concentration. […] The cells are then incubated with a fluorescent dye specific for calcium (Fluo-4 or Fura-2; Molecular Probes) that provides a fast, simple and reliable fluorescence-based method for detecting changes in calcium concentration inside the cell. […]

hT2R13 = target: T6, hT2R13 (Homo sapiens, UniProt Q9NYV9); assay type: cell-based; conditions: concentration not given
T6 construct: expressed in transfected cells; host or cells: HEK293 cells stably expressing large T antigen and G16gust44, transiently transfected
T6 sequence (Q9NYV9 1-303): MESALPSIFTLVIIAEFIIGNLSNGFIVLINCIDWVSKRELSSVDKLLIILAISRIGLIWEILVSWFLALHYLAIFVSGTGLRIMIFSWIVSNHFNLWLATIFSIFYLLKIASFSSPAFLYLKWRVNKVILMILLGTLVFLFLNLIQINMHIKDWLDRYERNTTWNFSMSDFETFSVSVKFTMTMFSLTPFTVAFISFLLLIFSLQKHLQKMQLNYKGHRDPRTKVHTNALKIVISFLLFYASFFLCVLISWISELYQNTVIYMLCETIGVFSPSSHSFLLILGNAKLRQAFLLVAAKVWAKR
Protocol: as §1
as §2, with “receptors by denatonium benzoate is measured” for “receptors by ranitidine is measured”, “a particular hT2R nucleic acid” for “a particular hT2R54 nucleic acid”, “the cell. […] This increase” for “the cell. Addition of ranitidine to cells elicits a signaling cascade leading to the activation of PLC and a subsequent increase in intracellular calcium concentration. This increase”, “microscopy and specific design” for “microscopy and a specific design”

hT2R61 = target: T7, hT2R61 (Homo sapiens, UniProt P59537, H212R/W35S); assay type: cell-based; conditions: concentration not given
T7 construct: expressed in transfected cells; host or cells: HEK293 cells stably expressing large T antigen and G16gust44, transiently transfected
T7 sequence (P59537 1-309 W35S/H212R): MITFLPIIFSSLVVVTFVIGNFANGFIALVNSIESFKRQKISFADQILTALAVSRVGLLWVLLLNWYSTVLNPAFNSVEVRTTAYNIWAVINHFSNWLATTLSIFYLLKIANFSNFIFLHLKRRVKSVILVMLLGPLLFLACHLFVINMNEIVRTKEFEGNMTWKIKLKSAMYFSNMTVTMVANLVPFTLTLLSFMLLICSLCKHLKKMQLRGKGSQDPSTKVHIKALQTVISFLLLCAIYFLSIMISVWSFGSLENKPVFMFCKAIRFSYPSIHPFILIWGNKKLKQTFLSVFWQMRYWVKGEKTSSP
Protocol: as §1
as §2, with “receptors by denatonium benzoate is measured” for “receptors by ranitidine is measured”, “a particular hT2R nucleic acid” for “a particular hT2R54 nucleic acid”, “the cell. […] This increase” for “the cell. Addition of ranitidine to cells elicits a signaling cascade leading to the activation of PLC and a subsequent increase in intracellular calcium concentration. This increase”, “microscopy and specific design” for “microscopy and a specific design”

hT2R8 [3] = target: T3, hT2R8; assay: dose response, stable HEK-G16gust44 line, calcium dye, FLIPR or VIPR; assay type: cell-based
Protocol: (§4) A HEK-G16gust44 line stably expressing high levels of hT2R8 or hT2R54 on its cell surface is used in high throughput screening assays. In this platform, the cells are seeded into 96 well or 384 well culture plates 18-24 hours before the assay. The cells are then incubated with the fluorescent calcium sensitive dye (Molecular Devices) and are stimulated and read in a standard fluorescence intensity plate reader (FLIPR or VIPR). Using this approach we have been able to further characterize the ranitidine effect on hT2R8 and hT2R54.
as §4, with “[…]” for “or hT2R54”, “VIPR).” for “VIPR). Using this approach we have been able to further characterize the ranitidine effect on hT2R8 and hT2R54.”

hT2R54 [4] = target: T4, hT2R54; assay: as above; assay type: cell-based; conditions: for dose response of hT2R54: stable HEK-G16gust44 line
Protocol: as §4
as §4, with “HEK-G16gust44 cell” for “HEK-G16gust44”, “of” for “of hT2R8 or”, “acetaminophen” for “ranitidine”, “on” for “on hT2R8 and”

[5] = taste detection threshold; assay type: in vivo, humans
hT2R4 = target: T8, hT2R4 (Homo sapiens, UniProt Q9NYW5); conditions: Chandrashekar et al. 2000; cited from earlier work
T8 sequence (Q9NYW5 1-299): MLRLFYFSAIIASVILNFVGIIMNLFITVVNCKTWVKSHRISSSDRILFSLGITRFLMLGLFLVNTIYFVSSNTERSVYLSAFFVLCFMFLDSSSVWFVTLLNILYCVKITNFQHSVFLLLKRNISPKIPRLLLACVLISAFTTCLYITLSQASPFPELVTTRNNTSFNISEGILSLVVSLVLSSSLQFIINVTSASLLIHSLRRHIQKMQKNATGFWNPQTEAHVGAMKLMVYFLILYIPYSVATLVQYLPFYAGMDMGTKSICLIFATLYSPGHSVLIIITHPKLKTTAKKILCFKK

C[C@@H]1C[C@@H]([C@H](O)CC2CC(=O)NC(=O)C2)C(=O)[C@@H](C)C1 [cycloheximide]
gustducin activation by mT2R5 (mT2R5): occurs only in response to cycloheximide

OC[C@H]1O[C@@](CO)(O[C@H]2O[C@H](CO)[C@@H](O)[C@H](O)[C@H]2O)[C@@H](O)[C@@H]1O [sucrose]
response of hT2R75 in calcium imaging (hT2R75; 10 μM): did not respond | response of hT2R8 in calcium imaging (hT2R8 [1]; 10 μM): did not respond | response of hT2R54 in calcium imaging (hT2R54 [2]; 10 μM): did not respond

OCc1ccccc1O[C@@H]1O[C@H](CO)[C@@H](O)[C@H](O)[C@H]1O [salicin]
response of hT2R54 in calcium imaging (hT2R54 [2]; 10 μM): does not respond

CC[N+](CC)(CC(=O)Nc1c(C)cccc1C)Cc1ccccc1 [denatonium benzoate]
response of hT2R75 in calcium imaging (hT2R75; concentration not given): respond specifically | response of hT2R8 in calcium imaging (hT2R8 [1]; concentration not given): respond specifically | response of hT2R10 in calcium imaging (hT2R10): respond specifically | response of hT2R54 in calcium imaging (hT2R54 [2]; concentration not given): respond specifically | response of hT2R13 in calcium imaging (hT2R13): respond specifically | response of hT2R61 in calcium imaging (hT2R61): respond specifically | pEC50 (hT2R8 [3]; dose response, FIG. 6): 3.35 | dose response of hT2R8 (hT2R8 [3]; stable HEK-G16gust44 line): typical dose-response relationship | pEC50 (hT2R54 [4]; dose response, FIG. 4, read-out: EC50, hT2R54): 6.42 | dose response of hT2R54 (hT2R54 [4]): typical dose-response relationship | taste detection threshold ([5]; in vivo): 24 mM | effective denatonium concentrations activating hT2R4 (hT2R4): 1.5 mM

CNC(=C[N+](=O)[O-])NCCSCc1ccc(CN(C)C)o1 [ranitidine]
taste detection threshold / bitter taste threshold for humans [5]: 78 µM

CC(=O)Nc1ccc(O)cc1 [acetaminophen]
response of hT2R54 in calcium imaging (hT2R54 [2]; 10 μM): responded specifically | pEC50 (hT2R54 [4]): 5.74 | dose response of hT2R54 (hT2R54 [4]): typical dose-response relationship | taste detection threshold / bitter taste threshold for humans [5]: 1.25 µM
